# ChEMBL document CHEMBL3091359, “Potent oxazolidinone antibacterials with heteroaromatic C-ring substructure” (ACS Med Chem Lett, 2013)
# Columns and labels:
# Staphylococcus aureus [1] = assay: Antibacterial activity against methicillin-resistant Staphylococcus aureus SR3637 clinical isolate infected in iv dosed JCL/ICR systemic infection model assessed as mortality administered after 1 hr of infection measured for 7 days; type: functional
# Staphylococcus aureus [2] = assay: Ratio of linezolid MIC to compound MIC for Staphylococcus aureus Smith clinical isolate; type: functional
# Staphylococcus aureus [3] = assay: Ratio of linezolid MIC to compound MIC for Staphylococcus aureus SR20549 clinical isolate; type: functional
# Haemophilus influenzae = assay: Antibacterial activity against Haemophilus influenzae SR27914 clinical isolate assessed as […] by CLSI broth microdilution method; type: functional
# Streptococcus pneumoniae [4] = assay: Antibacterial activity against penicillin-resistant Streptococcus pneumoniae SR11031 clinical isolate assessed as […] by CLSI broth microdilution method; type: functional
# Streptococcus pneumoniae [5] = assay: Antibacterial activity against Streptococcus pneumoniae SR26207 clinical isolate assessed as […] by CLSI broth microdilution method; type: functional
# Moraxella catarrhalis = assay: Antibacterial activity against Moraxella catarrhalis SR26840 clinical isolate assessed as […] by CLSI broth microdilution method; type: functional
# Enterococcus faecium = assay: Antibacterial activity against Enterococcus faecium SR7940 clinical isolate assessed as […] by CLSI broth microdilution method; type: functional
# Enterococcus faecalis = assay: Antibacterial activity against Enterococcus faecalis SR1004 clinical isolate assessed as […] by CLSI broth microdilution method; type: functional
# Staphylococcus aureus [6] = assay: Antibacterial activity against linezolid-resistant Staphylococcus aureus NRS271 clinical isolate harboring G2576T mutation in peptidyl transferase center domain V of 23S rRNA gene assessed as […] by CLSI broth microdilution method; type: functional
# Staphylococcus aureus [7] = assay: Antibacterial activity against methicillin-resistant Staphylococcus aureus SR3637 clinical isolate assessed as […] by CLSI broth microdilution method; type: functional
# Staphylococcus aureus [8] = assay: Antibacterial activity against Staphylococcus aureus Smith clinical isolate assessed as […] by CLSI broth microdilution method; type: functional
# Staphylococcus aureus [9] = assay: Antibacterial activity against Staphylococcus aureus SR20549 clinical isolate assessed as […] by CLSI broth microdilution method; type: functional
# Staphylococcus aureus [10] = assay: Antibacterial activity against methicillin-resistant Staphylococcus aureus SR3637 clinical isolate infected in po dosed JCL/ICR systemic infection model assessed as mortality administered after 1 hr of infection measured for 7 days; type: functional
# Cytochrome P450 3A4 = Cytochrome P450 3A4 (Homo sapiens, UniProt P08684); assay: Inhibition of human CYP3A4 assessed as terfenadine hydroxylation after 20 mins by LC-MS/MS analysis; type: ADME
# Cytochrome P450 2D6 = Cytochrome P450 2D6 (Homo sapiens, UniProt P10635); assay: Inhibition of human CYP2D6 assessed as dextromethorphan O-demethylation after 20 mins by LC-MS/MS analysis; type: ADME
# Cytochrome P450 2C9 = Cytochrome P450 2C9 (Homo sapiens, UniProt P11712); assay: Inhibition of human CYP2C9 assessed as tolbutamide hydroxylation after 20 mins by LC-MS/MS analysis; type: ADME
# Cytochrome P450 1A2 = target: T1, Cytochrome P450 1A2 (Homo sapiens, UniProt P05177); assay: Inhibition of human CYP1A2 assessed as ethoxyresorufin O-deethylation after 20 mins by fluorescence plate reader; type: ADME
# T1 sequence (P05177 whole entry): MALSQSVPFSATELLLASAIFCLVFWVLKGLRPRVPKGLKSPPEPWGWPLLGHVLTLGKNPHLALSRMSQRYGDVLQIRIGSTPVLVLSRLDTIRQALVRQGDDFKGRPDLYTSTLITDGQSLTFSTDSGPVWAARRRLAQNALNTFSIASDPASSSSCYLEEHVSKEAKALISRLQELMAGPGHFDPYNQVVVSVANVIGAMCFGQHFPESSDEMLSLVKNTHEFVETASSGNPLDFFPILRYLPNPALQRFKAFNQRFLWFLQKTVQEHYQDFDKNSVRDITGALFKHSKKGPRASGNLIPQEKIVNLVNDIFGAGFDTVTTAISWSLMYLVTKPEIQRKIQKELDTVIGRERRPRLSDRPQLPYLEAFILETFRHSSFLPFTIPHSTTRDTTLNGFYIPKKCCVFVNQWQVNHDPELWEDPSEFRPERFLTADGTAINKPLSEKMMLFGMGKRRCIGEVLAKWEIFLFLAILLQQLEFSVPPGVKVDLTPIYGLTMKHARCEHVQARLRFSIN
# MAO-A = target: T2, MAO-A (Rattus norvegicus, UniProt P21396); assay: Inhibition of rat forebrain MAO-A using [14C]5-HT as substrate at 30 uM preincubated for 20 mins followed by substrate addition measured after 5 mins by liquid scintillation counting analysis; conditions: probe [14C]5-HT
# T2 sequence (P21396 whole entry): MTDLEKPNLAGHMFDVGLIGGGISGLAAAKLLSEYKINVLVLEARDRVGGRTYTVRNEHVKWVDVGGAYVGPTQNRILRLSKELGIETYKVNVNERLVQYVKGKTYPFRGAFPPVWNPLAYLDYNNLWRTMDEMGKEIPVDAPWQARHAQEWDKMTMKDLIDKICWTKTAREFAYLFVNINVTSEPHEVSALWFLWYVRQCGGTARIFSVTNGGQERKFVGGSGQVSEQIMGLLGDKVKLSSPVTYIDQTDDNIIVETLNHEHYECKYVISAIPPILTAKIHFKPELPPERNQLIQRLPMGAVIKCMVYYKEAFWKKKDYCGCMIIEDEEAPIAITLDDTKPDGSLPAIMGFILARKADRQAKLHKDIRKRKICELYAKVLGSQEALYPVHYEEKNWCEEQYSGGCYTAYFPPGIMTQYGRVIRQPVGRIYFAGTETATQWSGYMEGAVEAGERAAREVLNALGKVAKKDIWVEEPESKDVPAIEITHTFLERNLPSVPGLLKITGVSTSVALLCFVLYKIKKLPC
# MAO-B = target: T3, MAO-B (Rattus norvegicus, UniProt P19643); assay: Inhibition of rat forebrain MAO-B using [14C]PEA as substrate at 30 uM preincubated for 20 mins followed by substrate addition measured after 10 mins by liquid scintillation counting analysis; conditions: probe [14C]PEA
# T3 sequence (P19643 whole entry): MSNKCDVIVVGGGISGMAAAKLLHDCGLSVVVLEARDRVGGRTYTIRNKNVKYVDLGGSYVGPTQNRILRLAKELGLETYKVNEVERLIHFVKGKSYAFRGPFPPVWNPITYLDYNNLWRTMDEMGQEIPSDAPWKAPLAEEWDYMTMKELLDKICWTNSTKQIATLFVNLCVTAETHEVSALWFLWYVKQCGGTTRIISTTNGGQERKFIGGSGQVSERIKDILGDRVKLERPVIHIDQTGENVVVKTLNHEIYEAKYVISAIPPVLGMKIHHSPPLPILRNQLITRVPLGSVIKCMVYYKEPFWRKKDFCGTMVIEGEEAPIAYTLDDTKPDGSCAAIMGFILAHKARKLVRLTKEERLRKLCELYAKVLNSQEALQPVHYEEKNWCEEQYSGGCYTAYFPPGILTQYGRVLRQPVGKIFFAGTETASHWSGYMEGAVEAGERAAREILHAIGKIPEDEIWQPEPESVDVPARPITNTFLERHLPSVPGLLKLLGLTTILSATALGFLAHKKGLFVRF
# [11] = AUC (infinity) in ICR mouse at 5.56 mg/kg, po by LC-MS/MS analysis; type: ADME, organism-based; design: time infinity, dose 5.56 mg/kg, route oral; conditions: plasma
# [12] = Cmax in ICR mouse at 5.56 mg/kg, po by LC-MS/MS analysis; type: ADME, organism-based; design: dose 5.56 mg/kg, route oral; conditions: in vivo
# [13] = Tmax in ICR mouse at 5.56 mg/kg, po by LC-MS/MS analysis; type: ADME, organism-based; design: dose 5.56 mg/kg, route oral; conditions: in vivo
# Staphylococcus aureus [14] = assay: Potency index, ratio of linezolid ED50 to compound ED50 for methicillin-resistant Staphylococcus aureus SR3637 in po dosed JCL/ICR mouse systemic infection model; type: functional
# [15] = AUC (infinity) in ICR mouse at 67.7 mg/kg, po by LC-MS/MS analysis; type: ADME, organism-based; design: time infinity, dose 67.7 mg/kg, route oral; conditions: plasma
# [16] = Cmax in ICR mouse at 67.7 mg/kg, po by LC-MS/MS analysis; type: ADME, organism-based; design: dose 67.7 mg/kg, route oral; conditions: in vivo
# [17] = Tmax in ICR mouse at 67.7 mg/kg, po by LC-MS/MS analysis; type: ADME, organism-based; design: dose 67.7 mg/kg, route oral; conditions: in vivo
# Chain of Cytochrome P450 3A4 (P08684 whole entry): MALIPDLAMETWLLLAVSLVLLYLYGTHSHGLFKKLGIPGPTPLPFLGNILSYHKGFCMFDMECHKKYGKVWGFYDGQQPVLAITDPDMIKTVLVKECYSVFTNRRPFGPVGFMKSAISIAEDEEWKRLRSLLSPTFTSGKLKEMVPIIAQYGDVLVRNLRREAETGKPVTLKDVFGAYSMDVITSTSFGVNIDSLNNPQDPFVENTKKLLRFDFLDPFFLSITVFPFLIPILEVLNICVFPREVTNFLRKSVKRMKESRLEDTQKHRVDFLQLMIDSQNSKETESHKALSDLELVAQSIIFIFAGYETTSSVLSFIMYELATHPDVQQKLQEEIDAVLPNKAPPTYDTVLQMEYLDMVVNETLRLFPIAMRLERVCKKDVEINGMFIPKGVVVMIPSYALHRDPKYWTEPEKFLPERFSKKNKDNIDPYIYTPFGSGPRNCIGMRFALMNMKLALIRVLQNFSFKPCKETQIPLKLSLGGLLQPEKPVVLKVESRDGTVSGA
# Chain of Cytochrome P450 2C9 (P11712 whole entry): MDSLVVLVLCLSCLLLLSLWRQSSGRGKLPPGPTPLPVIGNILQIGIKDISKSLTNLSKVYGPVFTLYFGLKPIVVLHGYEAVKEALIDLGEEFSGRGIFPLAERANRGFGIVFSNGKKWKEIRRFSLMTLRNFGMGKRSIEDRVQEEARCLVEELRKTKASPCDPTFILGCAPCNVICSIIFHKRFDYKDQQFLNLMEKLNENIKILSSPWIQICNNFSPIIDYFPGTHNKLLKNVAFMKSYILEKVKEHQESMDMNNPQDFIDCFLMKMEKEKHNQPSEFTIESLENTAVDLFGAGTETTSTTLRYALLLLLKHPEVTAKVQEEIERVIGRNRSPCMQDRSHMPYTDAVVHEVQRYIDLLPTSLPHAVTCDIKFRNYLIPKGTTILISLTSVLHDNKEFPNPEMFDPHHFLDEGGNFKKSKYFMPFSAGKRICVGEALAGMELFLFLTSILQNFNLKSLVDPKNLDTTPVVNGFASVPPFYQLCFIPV
# Chain of Cytochrome P450 2D6 (P10635 whole entry): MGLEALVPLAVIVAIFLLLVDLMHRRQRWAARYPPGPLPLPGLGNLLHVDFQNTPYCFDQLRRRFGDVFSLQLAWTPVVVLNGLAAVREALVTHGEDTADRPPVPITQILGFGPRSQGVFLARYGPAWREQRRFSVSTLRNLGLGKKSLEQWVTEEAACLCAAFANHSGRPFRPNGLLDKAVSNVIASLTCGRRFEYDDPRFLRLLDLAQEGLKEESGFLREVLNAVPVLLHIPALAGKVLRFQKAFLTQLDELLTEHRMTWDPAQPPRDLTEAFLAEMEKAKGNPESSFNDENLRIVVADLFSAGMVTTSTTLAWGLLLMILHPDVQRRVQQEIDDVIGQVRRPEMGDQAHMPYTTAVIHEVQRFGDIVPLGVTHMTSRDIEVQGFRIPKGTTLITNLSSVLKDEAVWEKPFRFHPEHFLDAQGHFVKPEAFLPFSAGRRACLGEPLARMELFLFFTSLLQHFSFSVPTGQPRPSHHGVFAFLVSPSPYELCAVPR
Structure (SMILES),ED50 (Staphylococcus aureus [1]) [mg/kg],Ratio (Staphylococcus aureus [2]),Ratio (Staphylococcus aureus [3]),MIC (Haemophilus influenzae) [mg/L],MIC (Streptococcus pneumoniae [4]) [mg/L],MIC (Streptococcus pneumoniae [5]) [mg/L],MIC (Moraxella catarrhalis) [mg/L],MIC (Enterococcus faecium) [mg/L],MIC (Enterococcus faecalis) [mg/L],MIC (Staphylococcus aureus [6]) [mg/L],MIC (Staphylococcus aureus [7]) [mg/L],MIC (Staphylococcus aureus [8]) [mg/L],MIC (Staphylococcus aureus [9]) [mg/L],ED50 (Staphylococcus aureus [10]) [mg/kg],IC50 (Cytochrome P450 3A4) [µM],IC50 (Cytochrome P450 2D6) [µM],IC50 (Cytochrome P450 2C9) [µM],IC50 (Cytochrome P450 1A2) [µM],"inhibition at 5 min, 30 µM (MAO-A) [%]","inhibition at 10 min, 30 µM (MAO-B) [%]",further results
CC(=O)NC[C@H]1CN(c2ccc(-c3ccc4ccnn4c3)c(F)c2)C(=O)O1,> 10,4,8,8,≤ 0.063,≤ 0.063,2,0.25,0.5,2,0.25,0.5,0.25,,,,,,,,
CC(=O)NC[C@H]1CN(c2ccc(-c3ccc4cncn4c3)c(F)c2)C(=O)O1,3.05,2,2,8,≤ 0.063,≤ 0.063,4,0.5,0.5,4,0.5,1,0.25,,,,,,,,
CC(=O)NC[C@H]1CN(c2ccc(-c3ccc4nccn4c3)c(F)c2)C(=O)O1,3.17,2,4,4,≤ 0.063,≤ 0.063,8,0.25,0.5,8,0.5,1,0.5,3.05,,,,,,,
CC(=O)NC[C@H]1CN(c2ccc(-c3ccn4ccnc4c3)c(F)c2)C(=O)O1,1.09,8,8,2,≤ 0.063,≤ 0.063,2,0.5,0.25,2,0.25,0.25,0.25,1.05,> 20,> 20,> 20,> 20,54.8,52.8,
CC(=O)NC[C@H]1CN(c2ccc(-c3ccc4ncnn4c3)c(F)c2)C(=O)O1,,4,2,4,≤ 0.063,≤ 0.063,8,0.5,0.5,8,0.5,0.5,0.5,,,,,,,,
CC(=O)NC[C@H]1CN(c2ccc(-c3ccn4ncnc4c3)c(F)c2)C(=O)O1,0.34,4,2,4,≤ 0.063,≤ 0.063,4,0.25,0.25,4,0.25,0.5,0.25,0.55,> 20,> 20,> 20,> 20,55.9,78.2,AUC(0-inf) [11]: 30.9 µg·h/mL; Cmax [12]: 4.78 µg/mL; Tmax [13]: 60 min; Ratio ED50 (Staphylococcus aureus [14]): 4
O=C1O[C@@H](Cn2ccnn2)CN1c1ccc(-c2ccc3nccn3c2)c(F)c1,,,,4,≤ 0.063,≤ 0.063,4,0.5,0.5,4,0.25,0.5,0.25,,,,,,,,
O=C1O[C@@H](Cn2ccnn2)CN1c1ccc(-c2ccn3ccnc3c2)c(F)c1,0.95,,,2,≤ 0.063,≤ 0.063,2,0.25,0.25,2,0.125,0.25,0.125,1.02,15,> 20,> 20,> 20,41.2,26.7,
O=C1O[C@@H](Cn2ccnn2)CN1c1ccc(-c2ccc3ncnn3c2)c(F)c1,,,,4,≤ 0.063,≤ 0.063,8,0.25,0.5,8,0.25,0.5,0.25,,,,,,,,
O=C1O[C@@H](Cn2ccnn2)CN1c1ccc(-c2ccn3ncnc3c2)c(F)c1,,,,2,≤ 0.063,≤ 0.063,4,0.25,0.25,2,0.25,0.25,0.125,0.95,> 20,> 20,> 20,> 20,33.2,27.9,
CC(=O)NC[C@H]1CN(c2ccc(N3CCOCC3)c(F)c2)C(=O)O1 [LINEZOLID],,,,16,,,8,2,,32,,,,1.98,> 20,> 20,> 20,> 20,,,AUC(0-inf) [15]: 162 µg·h/mL; Cmax [16]: 37 µg/mL; Tmax [17]: 30 min
